According to ChEMBL document CHEMBL5321270, “Discovery of Pyrazolone Carbothioamide Derivatives as Inhibitors of the Pdr1-KIX Interaction for Combinational Treatment of Azole-Resistant Candidiasis” (J Med Chem, 2023):
In brackets after ≈: the same amount, converted by molar mass. Activity calls are given as the source filed them. The rule behind the calls is not given here.

Experiments:
[1] = Inhibition of fluorescent probe FITC tagged PDR1-KIX domain (unknown origin) protein-protein interaction assessed as inhibition constant incubated for 2 hrs by fluorescence polarization binding assay
[2] = test system: Nakaseomyces glabratus; assay: Antifungal activity against fluconazole-resistant Candida glabrata 0161 assessed as fractional inhibitory concentration incubated for 48 hrs in presence of fluconazole by microplate reader assay; type: functional
[3] = test system: Candida albicans; assay: Antifungal activity against Candida albicans 103 assessed as fungal growth inhibition incubated for 48 hrs by microplate reader assay; type: functional, organism-based
[4] = test system: Nakaseomyces glabratus; assay: Antifungal activity against fluconazole-resistant Candida glabrata 9256 assessed as fungal growth inhibition incubated for 48 hrs by microplate reader assay; type: functional
[5] = test system: Nakaseomyces glabratus; assay: Antifungal activity against fluconazole-resistant Candida glabrata 0161 assessed as fluconazole fractional inhibitory concentration incubated for 48 hrs in presence of fluconazole by microplate reader assay; type: functional
[6] = test system: Nakaseomyces glabratus; assay: Synergistic antifungal activity against fluconazole-resistant Candida glabrata 0161 assessed as fractional inhibitory concentration index incubated for 48 hrs in presence of fluconazole by checkerboard microdilution method; type: functional
[7] = test system: Candida albicans; assay: Antifungal activity against Candida albicans 0029 assessed as fungal growth inhibition incubated for 48 hrs by microplate reader assay; type: functional, organism-based
[8] = test system: Nakaseomyces glabratus; assay: Antifungal activity against fluconazole-resistant Candida glabrata 0161 assessed as fungal growth inhibition incubated for 48 hrs by microplate reader assay; type: functional
[9] = test system: Candida albicans; assay: Antifungal activity against Candida albicans 5314 assessed as fungal growth inhibition incubated for 48 hrs by microplate reader assay; type: functional, organism-based
[10] = test system: Nakaseomyces glabratus; assay: Antifungal activity against fluconazole-sensitive Candida glabrata 7669 assessed as fungal growth inhibition incubated for 48 hrs by microplate reader assay; type: functional, organism-based
[11] = test system: Nakaseomyces glabratus; assay: Antifungal activity against fluconazole-resistant Candida glabrata 8535 assessed as fungal growth inhibition incubated for 48 hrs by microplate reader assay; type: functional
[12] = test system: [Candida] auris; assay: Antifungal activity against Candida auris 15448 assessed as fungal growth inhibition incubated for 48 hrs by microplate reader assay; type: functional; conditions: Candidozyma auris
[13] = test system: Candida parapsilosis; assay: Antifungal activity against Candida parapsilosis 20090 assessed as fungal growth inhibition incubated for 48 hrs by microplate reader assay; type: functional; conditions: Lodderomyces parapsilosis
[14] = test system: Candida albicans; assay: Antifungal activity against Candida albicans assessed as fungal growth inhibition incubated for 48 hrs by microplate reader assay; type: functional
[15] = test system: Candida tropicalis; assay: Antifungal activity against Candida tropicalis 10186 assessed as fungal growth inhibition incubated for 48 hrs by microplate reader assay; type: functional
[16] = test system: Cryptococcus neoformans; assay: Antifungal activity against Cryptococcus neoformans H99 assessed as fungal growth inhibition incubated for 48 hrs by microplate reader assay; type: functional
[17] = test system: Aspergillus fumigatus; assay: Antifungal activity against Aspergillus fumigatus 7544 assessed as fungal growth inhibition incubated for 48 hrs by microplate reader assay; type: functional
[18] = test system: Nannizzia gypsea; assay: Antifungal activity against Microsporum gypseum assessed as fungal growth inhibition incubated for 48 hrs by microplate reader assay; type: functional
[19] = test system: [Candida] auris; assay: Antifungal activity against Candida auris 0030 assessed as fungal growth inhibition incubated for 48 hrs by microplate reader assay; type: functional; conditions: Candidozyma auris
[20] = test system: Trichophyton rubrum; assay: Antifungal activity against Trichophyton rubrum assessed as fungal growth inhibition incubated for 48 hrs by microplate reader assay; type: functional

Compound	Ki [1] [µM]	FIC [2] [µg/mL]	Activity [3]	Activity [4]	fluconazole MIC in combination [5] [µg/mL]	fractional inhibitory concentration index (FICI) [6]	Activity [7]	MIC [8] [µg/mL]	Activity [9]	Activity [10]	Activity [11]	other results
N#CCC(=O)NNC(=S)Nc1ccc(N2CCOCC2)cc1	622	8	inactive	inactive	0.5	0.52	inactive	16 (≈ 50.1 µM)	inactive	inactive	inactive	–
Nc1cc(=O)n(C(=S)Nc2ccc(I)cc2)[nH]1	137	0.13	–	–	0.25	0.53	–	0.25 (≈ 0.694 µM)	–	–	–	MIC [12]: 2 µg/mL (≈ 5.55 µM); MIC [13]: 4 µg/mL (≈ 11.1 µM); MIC [4]: 0.25 µg/mL (≈ 0.694 µM); MIC [14]: 4 µg/mL (≈ 11.1 µM); MIC [15]: 4 µg/mL (≈ 11.1 µM); MIC [16]: 0.063 µg/mL (≈ 0.175 µM); MIC [17]: 16 µg/mL (≈ 44.4 µM); MIC [18]: 1 µg/mL (≈ 2.78 µM); MIC [11]: 0.25 µg/mL (≈ 0.694 µM); MIC [19]: 2 µg/mL (≈ 5.55 µM); MIC [20]: 1 µg/mL (≈ 2.78 µM)
Nc1cc(=O)n(C(=S)Nc2ccc(Cl)cc2)[nH]1	54.5	0.063	–	–	2	0.31	–	0.25 (≈ 0.93 µM)	–	–	–	MIC [12]: 2 µg/mL (≈ 7.44 µM); MIC [13]: 4 µg/mL (≈ 14.9 µM); MIC [4]: 0.25 µg/mL (≈ 0.93 µM); MIC [14]: 4 µg/mL (≈ 14.9 µM); MIC [15]: 4 µg/mL (≈ 14.9 µM); MIC [16]: 0.063 µg/mL (≈ 0.234 µM); MIC [17]: 16 µg/mL (≈ 59.5 µM); MIC [18]: 1 µg/mL (≈ 3.72 µM); MIC [11]: 0.25 µg/mL (≈ 0.93 µM); MIC [19]: 2 µg/mL (≈ 7.44 µM); MIC [20]: 1 µg/mL (≈ 3.72 µM)
N#CCC(=O)NNC(=S)Nc1ccc(Cl)cc1Cl	37.3	8	inactive	inactive	2	0.56	inactive	16 (≈ 52.8 µM)	inactive	inactive	inactive	–
N#CCC(=O)NNC(=O)Nc1ccc(Cl)cc1	275	4	inactive	inactive	16	0.56	inactive	64 (≈ 253 µM)	inactive	inactive	inactive	–
N#CCC(=O)NNC(=O)Nc1cccc(Cl)c1	119	2	inactive	inactive	16	0.53	inactive	> 64	inactive	inactive	inactive	–
N#CCC(=O)NNC(=S)Nc1cccc(Cl)c1Cl	37.1	8	inactive	inactive	2	0.56	inactive	16 (≈ 52.8 µM)	inactive	inactive	inactive	–
N#CCC(=O)NNC(=S)Nc1ccc2c(c1)CCC2	256	8	inactive	inactive	1	0.53	inactive	16 (≈ 58.3 µM)	inactive	inactive	inactive	–
COc1ccc(NC(=S)NNC(=O)CC#N)cc1	348	2	inactive	inactive	16	0.53	inactive	> 64	inactive	inactive	inactive	–
N#CCC(=O)NNC(=S)Nc1ccc(I)cc1	153	2	inactive	inactive	4	0.25	inactive	16 (≈ 44.4 µM)	inactive	inactive	inactive	–
Cc1ccc(NC(=S)NNC(=O)CC#N)cc1	476	2	inactive	inactive	16	0.53	inactive	64 (≈ 258 µM)	inactive	inactive	inactive	–
N#CCC(=O)NNC(=S)Nc1ccc(Cl)nc1	54.9	4	inactive	inactive	8	0.38	inactive	32 (≈ 119 µM)	inactive	inactive	inactive	–
N#CCC(=O)NNC(=S)Nc1ccc2[nH]ccc2c1	470	2	inactive	inactive	16	0.53	inactive	> 64	inactive	inactive	inactive	–
N#CCC(=O)NNC(=S)Nc1ccc(Cl)cc1	139	2	inactive	inactive	16	0.53	inactive	64 (≈ 238 µM)	inactive	inactive	inactive	–
N#CCC(=O)NNC(=S)Nc1ccccc1Cl	175	16	inactive	inactive	2	0.56	inactive	32 (≈ 119 µM)	inactive	inactive	inactive	–
